Measured values reported in US12269859B2, “Synthetic immune receptors and methods of use thereof” (Angeles Therapeutics, Inc., priority 2016, dated 2025).
Entries after “also recorded” stand apart in the source; their conditions may differ.

Columns and labels:
[1] = tested on: RAJI cells; assay: GLuc cytotoxicity assay, RAJI-GLuc cells; assay type: cell-based, human
Method: (D) Assay for Cytotoxic Activity in vitro and in vivo: The uninfected T cells or those expressing a control vector or SIR are cocultured with the target cell lines expressing a non-secretory form of a luciferase (such as GLuc, NLuc, Turboluc 16 etc.) for 4-96 hours and induction of cell lysis examined by measuring the luciferase activity as described in PCT/US17/52344. Alternate methods for measurement of cytotoxic activity (e.g., ^51Cr release assay or LDH release assay) can be used as well. The activity of T cells expressing a SIR can be also assayed in vivo using appropriate xenograft models in immunodeficient mice.
Cell death assay. To measure cell death, a novel assay based on ectopic cytosolic expression of Gluc or NLuc was utilized as described in PCT/US17/52344 “A Non-Radioactive Cytotoxicity Assay”. The method involves expression of a reporter in a target cells in a manner so that it is preferentially retained within the healthy cells but is either released from dead and dying cells or whose activity can be preferentially measured in dead and dying cells. The preferred reporter for this assay are 1) non-secreted forms of luciferases from the copepods, such as Gaussia princeps, Pleuromamma abdominalis, Metridia pacifica, Metridia curticauda, Metridia asymmetrica, Metridia okhotensis, Metridia longa, Lucicutia ovaliformis, Heterorhabdus tanneri, and Pleuromamma scutullata 2) engineered luciferase reporters from deep sea shrimp, such as NanoLuc. The sequence of several such reporter vectors is provided in SEQ ID NO: 881 to SEQ ID NO: 887. The above vectors were used to generate retrovirus and lentiviruses which in turn were used to generate polyclonal population of several target cell lines stably expressing GLuc, NLuc, TurboLuc or MLuc7 following selection with appropriate antibiotics. Unless indicated otherwise, the target cells stably expressing the different luciferases (GLuc, Nluc, MLuc7 or TurboLuc16) were plated in triplicate in a 384 well plate in the media used for growing the target cells. Target cells which grow in suspension were generally plated at a concentration of 2-3×10^4 per well, while target cells which grow as adherent monolayers were plated at a concentration of 1-2×10^4 per well. Unless indicated otherwise, the target cells were cocultured with the genetically modified T cells (i.e. those expressing SIR or CAR) at an Effector:Target (E:T) ratio varying from 1:1 to 10:1 for 4 hours to 96 hours. In the case target cells grow as adherent cells (e.g., HeLa cells), they were allowed to attach to the bottom of the wells overnight before the T cells were added. T cells mediated induction of lysis of target cells was assayed by increase of luciferase activity as measured by BioTek synergy plate reader by directly injecting 0.5×CTZ assay buffer containing native coeloentrazine (Nanaolight).
CTZ assay. A 100× stock solution of native coelenterazine (CTZ; Nanolight, cat #303) was made by dissolving 1 mg of lyophilized CT powder in 1.1 ml of 100% Methanol supplemented with 30 μl of 6N HCl to avoid oxidation of CTZ with time. To make CTZ assay buffer, the 100× stock solution of CTZ was diluted to 0.5× concentration in PBS. Unless indicated otherwise, a total volume of 15 μl of the CTZ assay buffer (as prepared above) was added to each well of a 384-well white plate (Greiner, 384 well white plate cat #781075) containing cells expressing the non-secretory form of the luciferase in approximately 50-60 μl volume of medium and plates were read for luminescence in endpoint mode using BioTek synergyH4 plate reader. For 96 well plates, cells were plated in 200 μl of media and approximately 50 μl of 0.5×CTZ assay buffer was added. Unless indicated otherwise, the 0.5×CTZ assay buffer was used for assaying the activity of GLuc, TurboLuc16, and MLuc7. The CTZ assay buffer (diluted to 0.125× concentration) was also used for measurement of NLuc activity in some experiments (see below).

[2] = tested on: target antigen-expressing cell line; assay: Jurkat NFAT-GFP assay, coculture with target cell lines expressing the respective target antigen (summary Table 10A); assay type: cell-based, human; design: key: The signs +/−, +, 2+ etc. after the name of the cell lines indicate the relative degree of positivity on the Jurkat-NFAT-GFP assay as measured by the % GFP positive cells; +: relative degree of positivity on the Jurkat-NFAT-GFP assay as measured by the % GFP positive cells; 2+: relative degree of positivity on the Jurkat-NFAT-GFP assay as measured by the % GFP positive cells; settings: relative % GFP positive cells; for NFAT-GFP ASSAY Positive Cell lines: RAJI: SIR-expressing Jurkat-NFAT-GFP cells cocultured with RAJI; for NFAT-GFP ASSAY Positive Cell lines: NALM6: SIR-expressing Jurkat-NFAT-GFP cells cocultured with NALM6
Method: (B) Induction of NFAT promoter driven GFP expression. The control vector- and SIR-expressing Jurkat-NFAT-GFP cocultured for 4-24 hours with the target antigen-expressing cell line (described above) and their ability to bind to the target antigen is assayed by measuring induction of GFP expression using Flow Cytometry. Cellular supernatant is collected and assayed for the induction of cytokines (e.g., IL2).
Jurkat NFAT-GFP Assay For Synthetic Immune Receptors. The Jurkat-NFAT-GFP cells are engineered in such a way that the IL-2 promoter, which carries NFAT binding sites, is cloned upstream of the GFP gene. These cells have been used to study signaling via TCR and CAR. The different SIRs were stably expressed in Jurkat NFAT-GFP cells by lentiviral mediated gene transfer, followed by selection with puromycin. The SIR-expressing Jurkat-NFAT-GFP cells were cocultured with the target cells at E:T ratio of approximately 1:2 for approximately 4 hours to 18 hours. When the interaction between SIRs and their target antigen results in activation of the NFAT pathway, GFP expression is induced.
Induction of GFP expression by coculturing of Jurkat-NFAT-GFP cells expressing different SIR constructs and the different target cells was studied essentially as described previously (Wu, Roybal, Puchner, Onuffer, & Lim, 2015). GFP expression was monitored by FACS analysis. A few representative examples of this assay are shown in the FIG. 13A-B. In panel A, control Jurkat-NFAT-GFP cells or those expressing SIRs targeting CD19 (clone ID 051716-I08), MPL (Clone ID: 040716-A07) and BCMA (Clone ID: 011116-A07) were incubated with RAJI (top), HEL (middle) or U266 (bottom) cells, respectively. […] In panel B, Jurkat cells expressing SIR targeting CDH6 (Clone ID: 051716-J05), CD276 (Clone ID: 050516-Q06) and Her2/neu (Clone ID: 050516-I03) were incubated with SKOV3 (top) and […] (middle and bottom) cells, respectively. […] The Jurkat-NFAT-GFP cells were engineered to express different SIRs targeting other antigens and the experiment repeated upon coculture with the target cells expressing their respective target antigen. The Jurkat-NFAT-GFP (parental) cells were used as control. The names of different SIRs, their SEQ ID NOs, component antigen binding domains and TCR chains can be determined by reference to Tables 7A-7H. A SIR is considered positive in the assay in case the SIR expressing Jurkat-NFAT-GFP cells show greater % GFP positive cells when cultured with the target cell line as compared to parental Jurkat-NFAT-GFP cells. […] The signs +/−, +, 2+ etc. after the name of the cell lines indicate the relative degree of positivity on the Jurkat-NFAT-GFP assay as measured by the % GFP positive cells after culture of the SIR expressing Jurkat-NFAT-GFP cells with that cell line. […] In addition, great diversity of response against the same target cell line is observed with Jurkat cells expressing SIRs containing different antigen binding domains targeting the same antigen (e.g., SIRs having antigen binding domains derived form different CD19 antibodies) even when the SIRs share the same TCR chains and linkers. Finally, Jurkat cells expressing SIRs targeting different antigens (e.g. CD19 vs CD20) show a diversitiy of response when exposed to the same target cell line. Thus, a diverse immune response can be generated against a single target cell by combining SIRs with different TCR chains, linkers, antigen binding domains and target specificity. Table 10A also summarizes the results of GLuc based T cell cytotoxicity assay observed with different SIRs when exposed to their target cell lines. […]

`C[C@@H]1CC[C@@]2(OC1)O[C@H]1[C@@H](O)[C@H]3[C@@H]4CC[C@H]5C[C@@H](O[C@@H]6O[C@H](CO)[C@H](O[C@@H]7O[C@H](CO)[C@@H](O)[C@H](O[C@@H]8OC[C@@H](O)[C@H](O)[C@H]8O)[C@H]7O[C@@H]7O[C@H](CO)[C@H](O)[C@H](O[C@@H]8O[C@H](CO)[C@@H](O)[C@H](O)[C@H]8O)[C@H]7O)[C@H](O)[C@H]6O)[C@H](O)C[C@]5(C)[C@H]4CC[C@]3(C)[C@H]1[C@@H]2C` [digitonin, Digitonin, reference compound] was tested. Which “mean Gluc values” ([1]; E:T 10:1, 4 hours) did it give?
The value was 3869.

“CD8SP-CD19Bu12-vL-Gly-Ser-Linker-CD19Bu12-vH-V5-[hTCRb-WT]-F-P2A-PAC [SEQ ID NO:1022]” was tested. Which “NFAT-GFP ASSAY Positive Cell lines: RAJI” value [2] did it give?
Its value is “RAJI (+)”.

What about the “lysis of target cells by increase of GLuc activity (in words)” value ([1]; E:T 10:1, 4 hours) of the same compound?
The value was “failed to induce lysis of RAJI cells”.

What does the source list for “CD8SP-CD20-2F2-vL-[canine-TCRb-opt]-F-P2A-CD20-2F2-vH-[canine-TCRa-opt]-F-F2A-PAC [SEQ ID NO:1113]”?
NFAT-GFP ASSAY Positive Cell lines: RAJI [2]: RAJI (+/−); lysis of target cells by increase of GLuc activity (in words) ([1]; E:T 10:1, 4 hours): effective induction of target cell lysis

Which “NFAT-GFP ASSAY Positive Cell lines: RAJI” value [2] does the source give for “CD8SP-FMC63-scFv-V5-[TCRb-S57C-opt1]-F-P2A-SP-FMC63-scFv-MYC-[TCRa-T48C-opt1]-T2A-Pac [SEQ ID NO:910]” here?
Its value is “RAJI (+/−)”.

Which “NFAT-GFP ASSAY Positive Cell lines: RAJI” value [2] does the source give for “CD8SP-FMC63-vL-G4Sx2-[hTCRa-S61R-opt]-F-F2A-FMC63-vH-G4Sx2-[hTCRb-R79G-opt]-F-P2A-PAC [SEQ ID NO:955]” here?
The value was “RAJI (+/−)”.

With “CD8SP-FMC63-vL-Gly-Ser-Linker-FMC63-vH-Myc-[preTCRa-Del48]-F-F2A-PAC [SEQ ID NO:914]” as the compound, how does the “NFAT-GFP ASSAY Positive Cell lines: RAJI” value [2] read?
The value was “RAJI (+)”.

“CD8SP-FMC63-vL-Gly-Ser-Linker-FMC63-vH-V5-[hTCRb-S57C-opt]-F-P2A-PAC [SEQ ID NO:912]” was tested. Which “NFAT-GFP ASSAY Positive Cell lines: RAJI” value [2] did it give?
The value was “RAJI (+/−)”.

And the “lysis of target cells by increase of GLuc activity (in words)” value ([1]; E:T 10:1, 4 hours)?
The value was “failed to induce lysis of RAJI cells”.

Which results are given for “CD8SP-FMC63-vL-Gly-Ser-Linker-FMC63-vH-V5-[hTCRb-S57C-opt]-F-P2A-SP-Myc-[hTCRa-T48C-opt]-F-F2A-PAC [SEQ ID NO:991]”?
NFAT-GFP ASSAY Positive Cell lines: NALM6 [2]: +; NFAT-GFP ASSAY Positive Cell lines: RAJI [2]: +/−

Which “NFAT-GFP ASSAY Positive Cell lines: RAJI” value [2] does the source give for “CD8SP-FMC63-vL-Gly-Ser-Linker-FMC63-vH-V5-[hTCRb-WT]-F-P2A-PAC [SEQ ID NO:911]” here?
Its value is “RAJI (+)”.

“CD8SP-FMC63-vL-Myc2-[hTCRb-R79G-opt]-F-P2A-SP-FMC63-vH-Myc4-[hTCRa-S61R-opt]-F-F2A-PAC [SEQ ID NO:937]” was tested. Which “NFAT-GFP ASSAY Positive Cell lines: RAJI” value [2] did it give?
The value was “RAJI (+/−)”.

How did the “lysis of target cells by increase of GLuc activity (in words)” value ([1]; E:T 10:1, 4 hours) turn out when “CD8SP-FMC63-vL-Myc-[hTCRa-T48C-opt1]-F-F2A-FMC63-VH-V5-[hTCRb-C57C-opt1]-F-P2A-PAC [SEQ ID NO:902]” was run?
The value was “can induce effective lysis of the target cells”.

For “CD8SP-FMC63-vL-Streptag-[hTCRb-R79G]-F-P2A-SP-FMC63-vH-Myc4-[hTCRa-S61R]-F-F2A-PAC [SEQ ID NO:938]”, which “NFAT-GFP ASSAY Positive Cell lines: RAJI” value [2] is on record?
The value was “RAJI (+/−)”.

For “CD8SP-FMC63-vL-V5-[hTCRb-S57C-opt]-F-P2A-SP-FMC63-vH-Myc-[hTCRa-T48C-opt]-F-F2A-PAC [SEQ ID NO:951]”, which “lysis of target cells by increase of GLuc activity (in words)” value ([1]; E:T 10:1, 4 hours) is on record?
Its value is “induced effective target cell lysis; also recorded: Modest cytotoxicity”.

“CD8SP-FMC63-vL-V5-[hTCRb-WT]-F-P2A-SP-FMC63-vH-Myc-[hTCRa-WT]-F-F2A-PAC [SEQ ID NO:922]” was tested. Which “NFAT-GFP ASSAY Positive Cell lines: RAJI” value [2] did it give?
The value was “RAJI (2+)”.

And the “lysis of target cells by increase of GLuc activity (in words)” value ([1]; E:T 1:1, 96 hours)?
The value was “fails to cause significant target cell lysis”.

And the “lysis of target cells by increase of GLuc activity (in words)” value ([1]; E:T 10:1, 4 hours)?
Its value is “fails to cause significant target cell lysis”.

What does the source list for “CD8SP-FMC63-vL-V5-[mTCRb-opt]-F-P2A-SP-FMC63-vH-Myc-[mTCRa-opt]-F-F2A-PAC [SEQ ID NO:953]”?
lysis of target cells by increase of GLuc activity (in words) ([1]; E:T 1:1, 96 hours): increase in GLuc activity; lysis of target cells by increase of GLuc activity (in words) ([1]; E:T 10:1, 4 hours): increase in GLuc activity

How did the “NFAT-GFP ASSAY Positive Cell lines: NALM6” value [2] turn out when “IgHSP-FMC63-vH-[hTCRb-C57C-opt]-F-P2A-CD8SP-FMC63-VL-MYC-[hTCRa-T48C-opt]-F-F2A-Pac [SEQ ID NO:901]” was run?
Its value is “RAJI(2+), NALM6(2+)”.

And the “NFAT-GFP ASSAY Positive Cell lines: RAJI” value [2]?
Its value is “RAJI(2+), NALM6(2+)”.

What about the “lysis of target cells by increase of GLuc activity (in words)” value ([1]; E:T 10:1, 4 hours) of the same compound?
Its value is “can also induce effective lysis of the target cells”.
